Source: patent US5356903A, “1-cyclopropyl-4-pyridyl-quinolines” (Sterling Winthrop Inc., priority 1993, dated 1994)
Read-outs that look alike come from different tables or passages of the source.

Assays:
human topoisomerase II = target: T1, human topoisomerase II (Homo sapiens, UniProt P11388); assay: Mammalian Topoisomerase II Inhibition Assay (stabilization of DNA-topo II covalent complex); assay type: biochemical
T1 construct: Topo II was purified from late log phase suspension cultures of HeLa WIS; endogenous in cells; host or cells: HeLa WIS (late log phase suspension cultures); enzyme purified from the cells
T1 sequence (P11388 whole entry): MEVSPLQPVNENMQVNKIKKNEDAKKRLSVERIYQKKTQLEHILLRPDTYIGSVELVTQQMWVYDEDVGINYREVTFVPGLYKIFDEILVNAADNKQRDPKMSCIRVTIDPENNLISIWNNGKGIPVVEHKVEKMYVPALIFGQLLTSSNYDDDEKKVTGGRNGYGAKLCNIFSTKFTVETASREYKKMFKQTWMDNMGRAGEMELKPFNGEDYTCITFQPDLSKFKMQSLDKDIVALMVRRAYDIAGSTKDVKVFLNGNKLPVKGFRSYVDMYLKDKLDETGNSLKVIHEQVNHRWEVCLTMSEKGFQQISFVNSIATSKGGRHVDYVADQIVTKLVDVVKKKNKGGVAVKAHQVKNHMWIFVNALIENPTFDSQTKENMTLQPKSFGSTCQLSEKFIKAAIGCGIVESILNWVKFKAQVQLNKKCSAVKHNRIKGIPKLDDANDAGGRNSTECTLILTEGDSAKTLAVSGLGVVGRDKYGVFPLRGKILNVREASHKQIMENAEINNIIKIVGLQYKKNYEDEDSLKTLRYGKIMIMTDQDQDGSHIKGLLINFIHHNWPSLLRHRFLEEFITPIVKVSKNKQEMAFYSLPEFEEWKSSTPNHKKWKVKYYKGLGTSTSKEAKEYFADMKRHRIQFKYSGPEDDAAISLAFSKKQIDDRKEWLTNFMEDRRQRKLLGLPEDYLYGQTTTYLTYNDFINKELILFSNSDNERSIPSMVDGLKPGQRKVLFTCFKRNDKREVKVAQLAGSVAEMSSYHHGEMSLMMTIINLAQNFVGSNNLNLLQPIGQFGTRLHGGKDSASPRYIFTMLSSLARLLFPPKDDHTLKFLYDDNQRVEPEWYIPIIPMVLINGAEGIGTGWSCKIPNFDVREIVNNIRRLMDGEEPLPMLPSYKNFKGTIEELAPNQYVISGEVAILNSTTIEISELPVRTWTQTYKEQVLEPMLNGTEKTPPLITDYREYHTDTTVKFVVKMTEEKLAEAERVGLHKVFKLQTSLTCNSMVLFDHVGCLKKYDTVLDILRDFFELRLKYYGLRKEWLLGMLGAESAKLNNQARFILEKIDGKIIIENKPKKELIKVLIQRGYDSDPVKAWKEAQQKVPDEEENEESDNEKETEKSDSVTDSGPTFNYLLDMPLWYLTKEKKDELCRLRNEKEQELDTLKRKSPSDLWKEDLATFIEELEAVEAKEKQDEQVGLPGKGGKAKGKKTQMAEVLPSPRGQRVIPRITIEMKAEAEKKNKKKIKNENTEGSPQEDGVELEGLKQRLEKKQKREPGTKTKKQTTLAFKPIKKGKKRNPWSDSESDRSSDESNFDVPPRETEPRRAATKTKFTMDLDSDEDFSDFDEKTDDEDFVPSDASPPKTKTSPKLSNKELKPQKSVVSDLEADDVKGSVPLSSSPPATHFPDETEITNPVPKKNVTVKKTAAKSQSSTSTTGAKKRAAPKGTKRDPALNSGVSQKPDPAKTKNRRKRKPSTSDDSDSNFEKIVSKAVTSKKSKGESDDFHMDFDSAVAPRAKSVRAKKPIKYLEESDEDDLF
Source text: Mammalian Topoisomerase II Inhibition Assay Procedure
The inhibition of human topoisomerase II (hereafter topo II) was quantitated by a procedure adapted from that described by Trask et al., EMBO J., 3, 671-676 (1984). The assay quantitates the amount of topo II covalently complexed by DNA at equilibrium during a topo II reaction. This assay determines the potential of a compound to stabilize this complex, which potential is closely related to the cytotoxicity of several clinically useful antineoplastic agents.
Topo II was purified from late log phase suspension cultures of HeLa WIS by an adaptation of the method described by Per et al., Mol. Pharmacol., 32, 17-25 (1987).
Assays (in duplicate) were assembled at 4° C. Assay mix (25 μl ) was distributed in Beckman (No. 265270) 1.5 mL microtitre tubes followed by the addition of 5 μl test to yield the final concentrations of assay components:
4 ng 3' end labeled (^32 p) pBR322 DNA (10^7 DPM/μg)
The assay mix including the test compound was incubated for 20 minutes at 37° C. The reaction was terminated at 37° C. by the addition of 3 μl 10% SDS followed by the addition of 266 μl 10 mM Tris-Cl pH 7.5, 20 μg/ml calf thymus DNA, 1% SDS.
A SDS/protein precipitate was formed by the addition of 28 μl 2.5M KCl followed by chilling on ice for a minimum of 10 minutes. The precipitate was collected and washed with a Brandell cell harvester on a GFB glass fiber filter membrane as follows. The contents of the assay tube were drawn up into the harvester. The tube was then rinsed 7× with 10 mM Tris-Cl pH 7.5, 1 mM EDTA and 100 mM KCl. The precipitate was washed with 1 L of a solution of 10 mM Tris-Cl pH 7.5, 1 mMEDTA, 100 mM KCl followed by 1 L of 95% ethyl alcohol and finally 0.5 L 70% of ethyl alcohol (per 48 samples in each case). After drying, CPM was determined by liquid scintillation counting with 5 ml Biofluor (NEN Research Products) or Readisafe (Beckman Instruments Inc.) cocktail.
Preparation of test compound--A stock solution (6 mg/ml) of test compound was prepared either in 0.1N sodium hydroxide or 0.2N hydrogen chloride. This solution then was diluted 1/5 into water and serially thereafter in either 0.02N sodium hydroxide or 0.04N hydrogen chloride, respectively. The stock solution and serial dilution of the test compound was stored at -20° C. prior to testing.
Screening of test compound--As an initial screen, the test compound was tested at a final concentration of 2, 20 and 200 μg/ml. The compound was then retested at a range of concentrations (usually 2-3× steps) bridging their approximate EC50 's, as estimated by the prescreen.
Controls--A solvent control which indicates the base level of topo II-DNA complexes formed in the absence of the test compound was included in each test. A control, in which topo II was omitted, was included for each test compound at the highest drug concentration tested.
Reference Agent--A dose response curve with mAMSA at 0.01, 0.08, 0.16, 0.32, 1.0 and 10 μg/ml was included in each test.
Data reduction--The EC50 (effective concentration at which 50% of the maximal DNA-topo II complex is formed) of a test compound is defined to be the concentration with activity equal to the EC50 of the reference agent, mAMSA. The maximal DNA-topo II complex formed is taken as that equal to that formed at the nearly saturating dose of mAMSA (10 μg/ml).
The results obtained for representative compounds of the invention in the human topoisomerase II assay procedure expressed as EC50 s (μM) are presented in Table 3.

[1] = tested on: pancreatic ductal adenocarcinoma No. 03 (Panc 03); assay: In vivo antitumor assay, Panc03; design: species or system murine tumor in mice
Source text: (§1) In vivo Antitumor Assay Procedure
(§2) Mice: Inbred: C3H/He and NCR-nu; and Hybrids: B6D2F1 (C57BL/6 females×DBA/2 males, CD2F1 (Balb/c females×DBS/2 males) and B6C3fl (C57BL/6×C3H) were bred at Wayne State University from strains obtained from the Frederick Cancer Research Facility, Frederick, Md. or purchased from commercial suppliers.
Tumors: Murine Tumor: P388 leukemia and pancreatic ductal adenocarcinoma No. 03 (Panc 03) were used for in vivo testing. Human tumor: A single human tumor, mammary carcinoma MX-1 (MX1) was used for in vivo testing. All tumors are in the Developmental Therapeutics Program frozen tumor respository, maintained by the Biological Testing Branch, Frederick, Md. Each has a detailed description, code identification number, and list of references at the National Tumor Repository. Murine tumors were maintained in the mouse strain of origin and were transplanted in the appropriate F1 hydrid (or the strain of orgin) for therapy trials. Human mammary carcinoma MX-1 (MX1) was maintained as a subcutaneous implant in either athymic Swiss (Cr: NIH (S) - nu) or athymic random bred (NCR-nu) mice and transplanted in NCR-nu for therapy trials.
Chemotherapy: For pancreatic ductal adenocarcinoma No. 3, bilateral tumor implants were used to help ensure a more uniform tumor burden per mouse. The animals necessary to begin an experiment were pooled, implanted bilaterally s.c. on day zero with 30-60-mg tumor fragments using a 12-gauge trocar, and again pooled before randomization to the various treatment and control groups. Chemotherapy was started within three days after tumor implantation while the number of cells per mouse was relatively small (1×10^7 -1×10^8 cells).
End Points for Assessing Antitumor Activity
(§3) Quantitative end points used to assess antitumor activity were percent Increased Life Span (% ILS), and Tumor Growth Inhibition (T/C).
(§4) Endpoints were calculated as follows: […]
Tumors were measured with a caliper once or twice weekly (as needed) until either tumors exceeded 1600 mg or cure was assured. Tumor weights were estimated from two dimensional measurements: Tumor Weight (mg)+(a×b^2)/2, where a and b are the tumor length and width (mm) respectively. Measurements were carried out simultaneously in both treatment and control groups. When the control group tumors reached approximately 750-1500 mg in size (median of group), the median tumor weight of each group was determined (including zeros). The T/C value in percent is an indication of antitumor effectiveness. The % T/C was calculated from the following formula for solid murine tumor models: [formula] where T and C are median tumor weights of the treatment and control groups, respectively. A T/C equal to or less than 42% is considered significant antitumor activity. A T/C value<10% is indicative of a high degree of antitumor activity and is the level used by National Cancer Institute to justify further development if other requirements are met (termed DN-2 level activity). By convention the T/C value for the mammary carcinoma MX-1 model is calculated by the parameter of change in tumor weight. The % T/C was calculated from the following formula for the MX-1 model; [formula] where ΔT and ΔC are the change in mean tumor weight of the test and control groups, respectively, and T (initial) is the initial mean tumor weight of the test group. […] A % T/C≤10 is considered significant activity.

P388 leukemia = assay: In vivo antitumor assay, P388 leukemia; design: species or system murine tumor in mice
Source text: as §1, §2
Tumors: Murine Tumor: P388 leukemia and pancreatic ductal adenocarcinoma No. 03 (Panc 03) were used for in vivo testing. Human tumor: A single human tumor, mammary carcinoma MX-1 (MX1) was used for in vivo testing. All tumors are in the Developmental Therapeutics Program frozen tumor respository, maintained by the Biological Testing Branch, Frederick, Md. Each has a detailed description, code identification number, and list of references at the National Tumor Repository. Murine tumors were maintained in the mouse strain of origin and were transplanted in the appropriate F1 hydrid (or the strain of orgin) for therapy trials. Human mammary carcinoma MX-1 (MX1) was maintained as a subcutaneous implant in either athymic Swiss (Cr: NIH (S) - nu) or athymic random bred (NCR-nu) mice and transplanted in NCR-nu for therapy trials. […]
as §3, §4

[2] = tested on: mammary carcinoma MX-1 (MX1); assay: In vivo antitumor assay, mammary carcinoma MX-1; design: species or system human tumor in NCR-nu mice; conditions: MX-1, sc tumor/ip drug
Source text: as §1, §2
Tumors: Murine Tumor: P388 leukemia and pancreatic ductal adenocarcinoma No. 03 (Panc 03) were used for in vivo testing. Human tumor: A single human tumor, mammary carcinoma MX-1 (MX1) was used for in vivo testing. All tumors are in the Developmental Therapeutics Program frozen tumor respository, maintained by the Biological Testing Branch, Frederick, Md. […]
as §3, §4
Tumors were measured with a caliper once or twice weekly (as needed) until either tumors exceeded 1600 mg or cure was assured. […] When the control group tumors reached approximately 750-1500 mg in size (median of group), the median tumor weight of each group was determined (including zeros). […] The % T/C was calculated from the following formula for solid murine tumor models: [formula] where T and C are median tumor weights of the treatment and control groups, respectively. […]

[3] = concentration with activity equal to EC50 of mAMSA, 20 min, 37° C, read-out: Topo II EC50
[4] = footnote *: bell shaped dose response, read-out: Topo II EC50 (bell shaped dose response)

Row | Compound | EC50 (human topoisomerase II; [3]) | also measured
1 | Cc1cc(-c2c(F)cc3c(=NN)ccn(C4CC4)c3c2F)cc(C)n1 [Example 1] | 1.7 µM | In vivo antitumor activity, Panc03 ([1]; Panc03, sc tumor/iv drug): Inactive
2 | Cc1cc(-c2c(F)cc3c(=NNc4ccccn4)ccn(C4CC4)c3c2F)cc(C)n1 [Example 2] | 0.98 µM | % T/C (Tumor Growth Inhibition), Panc03 ([1]; Panc03, sc tumor/iv drug, T/C ≤42% considered significant): 37%; In vivo antitumor activity, P388 (P388 leukemia; P388, ip tumor/ip drug): Inactive; In vivo antitumor activity, P388 (P388 leukemia; P388, ip tumor/iv drug): Inactive; In vivo antitumor activity, MX-1 [2]: Inactive
3 | Cc1ccc(S(=O)(=O)N=c2ccn(C3CC3)c3c(F)c(-c4cc(C)nc(C)c4)c(F)cc23)cc1 [Example 3] |  | EC50 (human topoisomerase II; [4]): 45 µM
4 | Cc1cc(-c2c(F)cc3c(=N)ccn(C4CC4)c3c2F)cc(C)n1 [Example 4] | 12 µM | 
5 | CC(=O)NN=c1ccn(C2CC2)c2c(F)c(-c3cc(C)nc(C)c3)c(F)cc12 [Example 5] | 20 µM | 
6 | Cc1cc(-c2c(F)cc3c(=NN4C(=O)c5ccccc5C4=O)ccn(C4CC4)c3c2F)cc(C)n1 [Example 6] | 16 µM | 
7 | Cc1cc(-c2c(F)cc3c(c2F)N(C2CC2)C=CC3=C(C#N)C#N)cc(C)n1 [Example 7] |  | EC50 (human topoisomerase II; [4]): 6.3 µM
8 | CCOC(=O)C(C#N)=C1C=CN(C2CC2)c2c1cc(F)c(-c1cc(C)nc(C)c1)c2F [Example 8a] |  | EC50 (human topoisomerase II; [4]): 4.8 µM
9 | Cc1cc(-c2c(F)cc3c(c2F)N(C2CC2)C=CC3=CC#N)cc(C)n1 [Example 8b] | 4 µM | 
10 | CNN=c1ccn(C2CC2)c2c(F)c(-c3cc(C)nc(C)c3)c(F)cc12 [Example 9] | 1.9 µM | 
11 | Cc1cc(-c2c(F)cc3c(=NO)ccn(C4CC4)c3c2F)cc(C)n1 [Example 10] | 1.4 µM | In vivo antitumor activity, Panc03 ([1]; Panc03, sc tumor/iv drug): Inactive
12 | Cc1cc(-c2c(F)cc3c(=NN(C)C)ccn(C4CC4)c3c2F)cc(C)n1 [Example 11] | 2.3 µM | 
13 | Cc1cc(-c2c(F)cc3c(=NC4CC4)ccn(C4CC4)c3c2F)cc(C)n1 [Example 12] | 2.4 µM | In vivo antitumor activity, Panc03 ([1]; Panc03, sc tumor/iv drug): Inactive
14 | Cc1cc(-c2c(F)cc3c(=NNC(N)=O)ccn(C4CC4)c3c2F)cc(C)n1 [Example 13] | 3.1 µM | In vivo antitumor activity, Panc03 ([1]; Panc03, sc tumor/iv drug): Inactive
15 | Cc1cc(-c2c(F)cc3c(=NNc4c5ccccc5nc5ccccc45)ccn(C4CC4)c3c2F)cc(C)n1 [Example 14] | 28 µM | 
16 | Cc1cc(-c2c(F)cc3c(=NNCCO)ccn(C4CC4)c3c2F)cc(C)n1 [Example 15] | 3.2 µM | 
17 | Cc1cc(-c2c(F)cc3c(=NNc4cnc5ccccc5c4)ccn(C4CC4)c3c2F)cc(C)n1 [Example 16] | 92 µM | 
18 | CON=c1ccn(C2CC2)c2c(F)c(-c3cc(C)nc(C)c3)c(F)cc12 [Example 17] |  | EC50 (human topoisomerase II; [4]): 2.6 µM
19 | Cc1cc(-c2c(F)cc3c(=NSc4ccc(Cl)cc4)ccn(C4CC4)c3c2F)cc(C)n1 [Example 18] | 9.4 µM | 
20 | Cc1cc(-c2c(F)cc3c(=NSc4ccccn4)ccn(C4CC4)c3c2F)cc(C)n1 [Example 19] | 3.8 µM | 
21 | Cc1cc(-c2c(F)cc3c(=S)ccn(C4CC4)c3c2F)cc(C)n1 [Int B] |  | EC50 (human topoisomerase II; footnote E: endpoint of assay extrapolated, read-out: Topo II EC50 (endpoint of assay extrapolated)): 76 µM

Now from value to compound, other results behind:

Row | EC50 (human topoisomerase II; [3]) | Compound | also measured
22 | 14 µM | Cc1cc(-c2c(F)cc3c(=NCCN(C)C)ccn(C4CC4)c3c2F)cc(C)n1 [Example 20] | 
23 | 5.5 µM | Cc1cc(-c2c(F)cc3c(=NCCCN(C)C)ccn(C4CC4)c3c2F)cc(C)n1 [Example 21] | 
24 | 1.9 µM | Cc1cc(-c2c(F)cc3c(=Nc4ccccc4)ccn(C4CC4)c3c2F)cc(C)n1 [Example 22] | 
25 | 3.6 µM | Cc1cc(-c2c(F)cc3c(=Nc4ccccn4)ccn(C4CC4)c3c2F)cc(C)n1 [Example 23] | 
26 | 1.6 µM | Cc1cc(-c2c(F)cc3c(=Nc4ccccc4O)ccn(C4CC4)c3c2F)cc(C)n1 [Example 24] | 
27 | 7.6 µM | Cc1cc(-c2c(F)cc3c(=Nc4ccc(N)cc4)ccn(C4CC4)c3c2F)cc(C)n1 [Example 25] | 
28 | 17 µM | Cc1cc(-c2c(F)cc3c(=O)ccn(C4CC4)c3c2F)cc(C)n1 [Int A] | In vivo antitumor activity, Panc03 ([1]; Panc03, route not given): Inactive
29 | 24 µM | CSc1cc[n+](C2CC2)c2c(F)c(-c3cc(C)nc(C)c3)c(F)cc12 [Int C] | 
